From patent US20030228607A1, “Screening method and modulators having an improved therapeutic profile” (priority 2002, published 2003)

Experiments:
ABCA1 [1] = assay: ABCA1 mRNA in mouse embryonic fibroblasts in culture; assay type: cell-based; details: MEFs in culture, 1 μM, 18 hrs; LXR dependent
Experimental: (§1) FIG. 5. LXR mediated repression of ABCA1 is tissue specific. To measure the LXR dependent regulation of ABCA1 in different tissues wild type and LXRαβ−/− mice were dosed with 10 mg/kg T0901317 for 7 days by oral gavage. After 7 days the animals were sacrificed and intestinal mucosa, quadriceps, and livers were harvested. Mouse embryonic fibroblasts (MEFs) were isolated from embryos harvested at embryonic day 14. MEFs were plated in DMEM+10% FBS and treated with either vehicle or 1 μM T0901317 for 18 hrs. RNA was isolated and RT-PCR was used to quantitate the levels of ABCA1 and cyclophilin in FIG. 5A, intestinal mucosa, FIG. 5B, liver, FIG. 5C, MEFs and FIG. 5D, quadricep. […] RNA isolation and analysis of gene expression by quantitative RT-PCR. […] Quantitative PCR of reverse transcriptase reactions was carried out with 1.25 units Taq polymerase (Life Technologies), 1× Taq buffer, 3 mM MgCl2, 200 uM dNTPs, 400 nM target specific forward and reverse primers and 100 nM target specific fluorogenic probe. […] Levels of cyclophilin were measured in all in vivo samples and the results are presented as number of target transcripts per cyclophilin transcript. […] ABCA1 levels were also measured in isolated mouse embryonic fibroblasts treated with T091317 in culture. LXR agonist treatment increases expression of ABCA1 mRNA in all of the tissues analyzed, in an LXR dependent manner. […]

[2] = molecular target: T1, human LXRα ligand binding domain with co-repressors NCoR and SMRT (Homo sapiens, UniProt Q13133); assay: GAL4 two-hybrid co-repressor interaction in CV-1 cells, LXRα; assay type: cell-based; details: 1 μM overnight, luciferase normalized to β-gal
T1 construct: expressed in transfected cells; host or cells: CV-1 cells
T1 sequence (Q13133 164-447): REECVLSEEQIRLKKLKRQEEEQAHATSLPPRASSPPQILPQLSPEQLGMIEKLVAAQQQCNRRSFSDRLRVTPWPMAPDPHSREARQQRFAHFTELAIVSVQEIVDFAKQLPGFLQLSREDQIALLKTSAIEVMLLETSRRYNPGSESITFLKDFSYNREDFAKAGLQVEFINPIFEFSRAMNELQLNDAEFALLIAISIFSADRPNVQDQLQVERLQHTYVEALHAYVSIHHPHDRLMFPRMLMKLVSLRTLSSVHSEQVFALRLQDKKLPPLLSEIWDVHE
Experimental: (§2) FIG. 6. […] Two-hybrid analysis was performed by transiently transfecting CV-1 cells with a Gal4-luciferase reporter, Gal4-fusions of the receptor interacting domains of NcoR and SMRT, VP16 fusion of the ligand binding domains of LXRα and LXRβ and a β-gal expression vector. Cells were transfected with FUGENE transfection reagent and incubated with vehicle or 1 μM T0901317 overnight. The cells were then lysed and analyzed for β-gal and luciferase activity. The data is presented as luciferase activity normalized to β-gal activity.
(§3) GAL4 two-hybrid experiments. CV-1 cells were transfected using FuGene6 (Roche Applied Science, Indianapolis, Ind.) per manufacturer's instructions in 96 well plates with a total of 65 ng of DNA per well, consisting of 20 ng β-gal reporter, 15 ng GAL4-UAS4xRE (SEQ. ID. No. 28), 15 ng VP16-LXR-LBD, and 15 ng GAL4-human silencing mediator of retinoid and thyroid transcription (SMRT) receptor interacting domain 1 and 2 (ID1+ID2) or human nuclear receptor corepressor 1 (NCoR) ID1+ID2.

ABCA1 [3] = assay: ABCA1 mRNA (RT-PCR) and protein (western blot) in peritoneal macrophage; assay type: cell-based, mouse; details: 1 μM, 18 hrs
Text: FIG. 2. LXR dependent activation and repression of ABCA1. Thyoglycolate induced peritoneal macrophage were isolated from wild type and LXRαβ knockout mice. […] FIG. 2A. Following induction mRNA was isolated and RT-PCR was used to quantitate the levels of ABCA1 and the cyclophilin. ABCA1 levels were normalized to cyclophilin levels and the results are presented as fold induction above wild type macrophage treated with vehicle. FIG. 2B. For western blot analysis, whole cells extracts were isolated, run on an SDS-PAGE and probed with an antibody specific for ABCA1. RNA isolation and analysis of gene expression by quantitative RT-PCR. Total RNA from mouse tissues and cells was isolated using RNeasy kits (QIAGEN Inc.) according to the supplier's total RNA isolation procedure. Real time PCR was performed using a Perkin-Elmer/ABI 7700 Prism. […] Quantitative PCR of reverse transcriptase reactions was carried out with 1.25 units Taq polymerase (Life Technologies), 1× Taq buffer, 3 mM MgCl2, 200 uM dNTPs, 400 nM target specific forward and reverse primers and 100 nM target specific fluorogenic probe. […] Levels of cyclophilin were measured in all in vivo samples and the results are presented as number of target transcripts per cyclophilin transcript. […] RT-PCR was used to quantitate the levels of ABCA1 and the cyclophilin following induction of mRNA. […]

[4] = molecular target: T2, human LXRβ ligand binding domain with co-repressors NCoR and SMRT (Homo sapiens, UniProt P55055, DUP175-175); assay: GAL4 two-hybrid co-repressor interaction in CV-1 cells, LXRβ; assay type: cell-based; details: 1 μM overnight, luciferase normalized to β-gal
T2 construct: expressed in transfected cells; host or cells: CV-1 cells
T2 sequence (P55055 with tags, fused parts or gaps DUP175-175): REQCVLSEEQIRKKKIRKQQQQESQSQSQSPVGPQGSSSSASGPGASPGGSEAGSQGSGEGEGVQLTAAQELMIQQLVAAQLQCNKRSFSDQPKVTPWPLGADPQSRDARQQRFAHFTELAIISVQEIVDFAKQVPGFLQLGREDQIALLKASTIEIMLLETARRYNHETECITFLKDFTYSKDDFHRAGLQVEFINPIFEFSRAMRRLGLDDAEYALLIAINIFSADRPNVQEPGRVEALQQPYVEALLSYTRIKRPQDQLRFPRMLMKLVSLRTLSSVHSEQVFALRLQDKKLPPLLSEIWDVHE
Experimental: as §2, §3

ABCA1 [5] = assay: ABCA1 mRNA in tissues of mice dosed by oral gavage; assay type: in vivo, mouse; details: 10 mg/kg daily for 7 days, intestinal mucosa, liver, quadriceps, LXR dependent
Experimental: as §1

[6] = molecular target: T3, GAL4-human silencing mediator of retinoid and thyroid transcription (SMRT) receptor interacting domain 1 and … (yeast; human); assay: mammalian GAL4/VP16 two-hybrid, CV-1 cells, luciferase reporter
T3 construct: also called GAL4-SMRT ID1+ID2
T3 chain: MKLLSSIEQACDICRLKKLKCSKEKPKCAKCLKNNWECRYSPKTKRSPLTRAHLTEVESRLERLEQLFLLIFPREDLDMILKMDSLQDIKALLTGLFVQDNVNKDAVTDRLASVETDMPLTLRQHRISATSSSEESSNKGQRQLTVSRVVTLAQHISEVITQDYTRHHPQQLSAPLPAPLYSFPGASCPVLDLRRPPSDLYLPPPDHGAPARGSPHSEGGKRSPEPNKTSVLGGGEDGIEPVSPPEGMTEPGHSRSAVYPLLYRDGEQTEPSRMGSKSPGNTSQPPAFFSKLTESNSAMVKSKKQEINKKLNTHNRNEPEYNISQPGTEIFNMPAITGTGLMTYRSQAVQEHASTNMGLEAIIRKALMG

O=S(=O)(c1ccccc1)N(CC(F)(F)F)c1ccc(C(O)(C(F)(F)F)C(F)(F)F)cc1 [T0901317, N-(2,2,2,-trifluoro-ethyl)-N-[4-(2,2,2-trifluoro-1-hydroxy-1-trifluoromethyl-ethyl)-phenyl]-benzenesulfonamide]
expression of ABCA1 mRNA in mouse embryonic fibroblasts (ABCA1 [1]): increases | interaction of LXRα with co-repressors NCoR and SMRT [2]: inhibited | ABCA1 mRNA levels (ABCA1 [3]; RT-PCR normalized to cyclophilin, LXR dependent (wild type vs LXRαβ-/-)): increases | ABCA1 protein levels (ABCA1 [3]; western blot, LXR dependent): increases | interaction of LXRβ with co-repressors NCoR and SMRT [4]: inhibited | expression of ABCA1 mRNA in tissues (ABCA1 [5]): increases

B1: VP16-LXR-LBD (VP16 activation domain fused to the ligand binding domain of human LXRα, amino acids 164-447) (receptor)
chain: SRGRTRNNYGSTIEGLLDLPDDDDAPAEAGLVAPRMSFLSAGQRPRRLSTTAPITDVSLVDELRLDGEEVDMTPADALDDFDLEMLGDVESPSPGMTHDPVSYGALDVDDFEFEQMFTDALGIDDFGGREECVLSEEQIRLKKLKRQEEEQAHATSLPPRRSSPPQILPQLSPEQLGMIEKLVAAQQQCNRRSFSDRLRVTPWPMAPDPHSREARQQRFAHFTELAIVSVQEIVDFAKQLPGFLQLSREDQIALLKTSAIEVMLLETSRRYNPGSESITFLKDFSYNREDFAKAGLQVEFINPIFEFSRAMNELQLNDAEFALLIAISIFSADRPNVQDQLQVERLQHTYVEALHAYVSIHHPHDRLMFPRMLMKLVSLRTLSSVHSEQVFALRLQDKKLPPLLSEIWDVHE
notes: also called VP16 fusion of LXRα; VP16-LXRα-LBD
binding result [6]: binds

B2: VP16-LXR-LBD (VP16 activation domain fused to the ligand binding domain of human LXRβ, amino acids 155-461) (receptor)
chain: SRGRTRNNYGSTIEGLLDLPDDDDAPAEAGLVAPRMSFLSAGQRPRRLSTTAPITDVSLVDELRLDGEEVDMTPADALDDFDLEMLGDVESPSPGMTHDPVSYGALDVDDFEFEQMFTDALGIDDFGGREQCVLSEEQIRKKKIRKQQQESQSQSQSPVGPQGSSSSASGPGASPGGSEAGSQGSGEGEGVQLTAAQELMIQQLVAAQLQCNKRSFSDQPKVTPWPLGADPQSRDARQQRFAHFTELAIISVQEIVDFAKQVPGFLQLGREDQIALLKASTIEIMLLETARRYNHETECITFLKDFTYSKDDFHRAGLQVEFINPIFEFSRAMRRLGLDDAEYALLIAINIFSADRPNVQEPGRVEALQQPYVEALLSYTRIKRPQDQLRFPRMLMKLVSLRTLSSVHSEQVFALRLQDKKLPPLLSEIWDVHE
notes: also called VP16 fusion of LXRβ; VP16-LXRβ-LBD
binding result [6]: binds
